# From patent US20230136562A1, “SPIROUREA DERIVATIVES” (Idorsia Pharmaceuticals Ltd, priority 2020, published 2023)
# Read-outs that look alike come from different tables or passages of the source.
# Columns and labels:
# [1] = system: primary neuronal cultures from embryonic rat brains; assay: Rat oscillation assay (FLIPR, neuronal calcium oscillations); format: cell-based; conditions: Rattus norvegicus
# Procedure, shortened: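 Cortical neurons from E18 Wistar rat embryos, cultured 8–10 days at high density, loaded with 1 μM Fluo-8 AM; calcium oscillations recorded by FLIPR once per second in Mg-free HBSS with 2 mM CaCl2, 20 mM HEPES, pH 7.4. Two acquisitions ("Acute", 500 sec, compound added at 250 sec; "20 min"), ± Kv7 blocker XE-991.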
# Kv7.2/7.3 = molecular target: T1, Kv7.2/7.3 (Homo sapiens, UniProt O43525+O43526); assay: Kv7.2/3 assay (FLIPR potassium assay, agonist mode); format: cell-based; conditions: Kv7.2/7.3 activation; HEK293 cells, human KCNQ2 and KCNQ3
# T1 construct: expressed in transfected cells; host or cells: HEK293
# Protocol: HEK293 cells were stably transfected with the appropriate ion channel cDNA(s) (human KCNQ2 and KCNQ3 genes). Cells were cultured in Dulbecco's Modified Eagle Medium/Nutrient mixture F-12 (D-MEM/F-12) supplemented with 10% fetal bovine serum, 100 U/mL penicillin G sodium, 100 µg/mL streptomycin sulfate and selection antibiotics. FLIPR Test Procedure: For FLIPR assay, cells were plated in 384-well black clear-bottomed microtiter plates (BD Biocoat Poly-D-Lysine Multiwell Cell Culture Plate) at 15'000 to 30'000 cells per well. Cells were incubated at 37° C. overnight or until cells reached sufficient density in the wells (near confluent monolayer) to use in fluorescence assays. […] Assays were performed with the FLIPR potassium assay kit (Molecular Devices) according to the manufacturer's instructions. Dye-loading: Growth media was removed and replaced with 20 μL of dye loading buffer for 60 min at room temperature. FLIPR Recording (agonist mode): Stock solutions of test compounds were prepared at a concentration of 33.3 mM in DMSO. 5 μL of 5× concentrated test, vehicle, or control compounds solutions prepared in the stimulation buffer (K^+-free buffer with 5 mM TI^+) were added to each well and fluorescence recording was continued for 5 min. The agonist effect (EC50 and % effect) of test or control compounds on Kv7 channels was determined as follows: Raw data was exported using Screenworks® 4.2 software and the fluorescence traces were analysed using Microsoft Excel (Microsoft Corp., Redmond, Wash.). The test compounds responses were expressed as % of maximum response of the control compound Flupirtine (Sigma-Aldrich), which was tested at concentrations ranging from 0.03 to 100 μM. Concentration-response data were fitted to a Hill equation. Non-linear least squares fits were made assuming a simple binding model. If appropriate, fits were weighted by the standard deviation. No assumptions about the fit parameters were made; the fit parameters were determined by the algorithm.
# [2] = 20 min, AUC of fluorescence measured 20 min after compound addition, read-out: FLIPR: IC50 [nM] 20 min
# [3] = Acute phase, ratio of AUC fluorescence before and after compound addition, read-out: FLIPR: IC50 [nM] acute
EC50 (Kv7.2/7.3) [µM],SMILES,"IC50 [1, 2] [nM]","IC50 [1, 3] [nM]"
0.023,"O=C(NC1CC2(CC2)C1)N[C@@H](CO)c1cccc(C(F)(F)F)c1 (single isomer, unassigned) [Example 186]",40,20
0.07,"O=C(NCc1cccc(C(F)(F)F)c1)NC1CC2(CC2)C1 [Example 2, 1-Spiro[2.3]hex-5-yl-3-(3-trifluoromethyl-benzyl)-urea]",86,63
0.0124,"O=C(NCc1cc(OCC(F)(F)F)ncn1)NC1CC2(CCC2)C1 [Example 59, 1-Spiro[3.3]hept-2-yl-3-[6-(2,2,2-trifluoro-ethoxy)-pyrimidin-4-ylmethyl]-urea]",61,45
